Like-named read-outs stand apart in the source and are kept apart here.

The test system of this experiment is acetylcholine-induced abdominal constriction. The experiment in a line: animal or person. As to conditions: for ED50: read-out: Ach ED50; for inhibition in vivo at 3 mg/kg: 3 mg./kg. i.v.; for inhibition in vivo at 100 mg/kg: 100 mg./kg. oral; for inhibition in vivo at 1000 mg/kg: 1000 mg./kg. oral; for inhibition in vivo at 300 mg/kg: 300 mg./kg. oral; for inhibition in vivo at 30 mg/kg: 30 mg./kg. oral; for inhibition in vivo at 550 mg/kg: 550 mg./kg. oral. The class given is in vivo, mice. An excerpt: The test procedures used to determine the analgesic activities of the compounds have been described in detail in the prior art and are as follows: The acetylcholine-induced abdominal constriction test, which is a primary analgesic screening test designed to measure the ability of a test agent to suppress acetylcholine-induced abdominal constriction in mice, described by Collier et al., Brit. J. Pharmacol. Chemotherap. 32, 295 (1968); a modification of the anti-bradykinin test, which is also a primary analgesic screening procedure, described by Berkowitz et al., J. Pharmacol. Exptl. Therap. 177, 500-508 (1971), Blane et al., J. Pharm. Pharmacol. 19, 367-373 (1967), Botha et al., Eur. J. Pharmacol. 6, 312-321 (1969) and Deffenu et al., J. Pharm. Pharmacol. 18, 135 (1966); and the rat paw flexion test, described by Kuzuna et al., Chem. Pharm. Bull., 23, 1184-1191 (1975), Winter et al., J. Pharm. Exptl. Therap., 211, 678-685 (1979) and Capetola et al., J. Pharm. Exptl. Therap. 214, 16-23 (1980).
Unless noted otherwise, all data were obtained on oral administration and are expressed either as the ED50 or as the percent inhibition at a given dose level (thus 30/100 or 30% inhibition at […].)
In some instances, the compounds were retested two or more times, and ED50 values were calculated for each series of repeat tests. In such instances, each of the ED50 values so-obtained is given in a series of values, thus 6, 28, 30, 43 in the case of the species of Example 1AW in the acetylcholine-induced abdominal constriction test.

The mark [1] stands for this setting: Mus musculus, iv, read-out: Ach percent inhibition.
Setting [2] is: Mus musculus, po, read-out: Ach percent inhibition.

As a reminder, the ED50 is the midpoint of the dose-response relation. On to `COc1ccc(C(=O)c2c(C)n(CCCN3CCOCC3)c3ccc(F)cc23)cc1.Cl` [Example 1I, 5-fluoro-2-methyl-3-(4-methoxybenzoyl)-1-[3-(4-morpholinyl)propyl]-1H-indole hydrochloride], for which the ED50 (Mus musculus, iv) was 8.5 mg/kg and the ED50 (Mus musculus, po) is 75 mg/kg.
Turning to `COc1ccc(C(=O)c2c(C)n(CCN3CCOCC3)c3ccccc23)cc1` [Example 1J], the “Ach ED50” value runs as follows: (i.v.) 6.7 mg/kg; (oral) 86 mg/kg.
Turning to `COc1ccc(C(=O)c2c(C)n(CCN3CCCC3)c3ccccc23)cc1` [Example 1K], under setting [1], the inhibition in vivo at 3 mg/kg was 30%. Further, for the setting “Mus musculus, iv, 5.5 mg./kg. i.v., read-out: Ach percent inhibition”, the inhibition in vivo at 5.5 mg/kg came to 25%. Also, the inhibition in vivo at 10 mg/kg (Mus musculus, iv, 10 mg./kg. i.v., read-out: Ach percent inhibition) amounted to 44%. Further, the ED50 (Mus musculus, po) came out at 255 mg/kg.
With `COc1ccc(C(=O)c2c(C)n(CCN3CCOCC3)c3c(F)cccc23)cc1` [Example 1M], under setting [2], the inhibition in vivo at 100 mg/kg came out at 50%.
For `COc1ccc(C(=O)c2c(C)n(CCN3CCOCC3)c3c(OC)cccc23)cc1` [Example 1N], the ED50 (Mus musculus, po) is 35.8 mg/kg.
On to `Cc1c(C(=O)c2ccc(F)cc2)c2ccccc2n1CCN1CCOCC1` [Example 1Q, 3-(4-fluorobenzoyl)-2-methyl-1-[2-(4-morpholinyl)ethyl]-1H-indole], for which, under “Mus musculus, po, 24 mg./kg. oral, read-out: Ach percent inhibition”, the inhibition in vivo at 24 mg/kg came out at 7%. Under “Mus musculus, po, 79 mg./kg. oral, read-out: Ach percent inhibition”, the inhibition in vivo at 79 mg/kg was found to be 27%. The inhibition in vivo at 238 mg/kg (Mus musculus, po, 238 mg./kg. oral, read-out: Ach percent inhibition) is 60%. Also, the inhibition in vivo at 435 mg/kg (Mus musculus, po, 435 mg./kg. oral, read-out: Ach percent inhibition) stood at 67%. In addition, the inhibition in vivo at 793 mg/kg (Mus musculus, po, 793 mg./kg. oral, read-out: Ach percent inhibition) was 60%. Under setting [2], the inhibition in vivo at 1000 mg/kg stood at 67%.
As to `Cc1c(C(=O)c2ccc3c(c2)OCO3)c2ccccc2n1CCN1CCOCC1` [Example 1R], the ED50 (Mus musculus, po) is 198 mg/kg.
On to `Cc1c(C(=O)c2csc3ccccc23)c2ccccc2n1CCN1CCOCC1` [Example 1T], for which the ED50 came out at 3.8 mg/kg (Mus musculus, iv) and 106 mg/kg (Mus musculus, po).
`COc1ccccc1C(=O)c1c(C)n(CCN2CCOCC2)c2ccccc12` [Example 1U, 2-methyl-3-(2-methoxybenzoyl)-1-[2-(4-morpholinyl)ethyl]-1H-indole]: the median effective dose (ED50) (Mus musculus, po) was found to be 155 mg/kg.
As to `COc1ccc(C(=O)c2c(C)n(CCN3CCOCC3)c3ccccc23)cc1F` [Example 1V], the inhibition in vivo at 300 mg/kg under setting [2] is 20%.
As for `Cc1c(C(=O)c2ccc3ccccc3c2)c2ccccc2n1CCN1CCOCC1` [Example 1W], for the setting “Mus musculus, iv, 1 mg./kg. i.v., read-out: Ach percent inhibition”, the inhibition in vivo at 1 mg/kg is 10%. For the same compound, the inhibition in vivo at 1.73 mg/kg (Mus musculus, iv, 1.73 mg./kg. i.v., read-out: Ach percent inhibition) came out at 0%. For the same compound, the inhibition in vivo at 3 mg/kg under setting [1] is 86%. Besides, under setting [2], the inhibition in vivo at 30 mg/kg is 0%, the inhibition in vivo at 300 mg/kg was 40% and the inhibition in vivo at 550 mg/kg amounted to 47%.
For `COc1ccc(C(=O)c2cn(CCN3CCOCC3)c3ccc(C)cc23)cc1` [Example 1X], the inhibition in vivo at 300 mg/kg under setting [2] worked out at 7%.
In the case of `Cc1c(C(=O)c2cccc(F)c2)c2ccccc2n1CCN1CCOCC1` [Example 1Y], under setting [2], the inhibition in vivo at 100 mg/kg is 30%.
On to `Cc1c(C(=O)c2ccccc2F)c2ccccc2n1CCN1CCOCC1` [Example 1Z, 3-(2-fluorobenzoyl)-2-methyl-1-[2-(4-morpholinyl)-ethyl]-1H-indole], for which the ED50 (Mus musculus, po) came to 68 mg/kg.
As for `Cc1c(C(=O)c2ccc(S(C)(=O)=O)cc2)c2ccccc2n1CCN1CCOCC1` [Example 2-O], under setting [2], the inhibition in vivo at 100 mg/kg is 20%.
Turning to `Cc1ccc(C(=O)c2cn(C(C)CN3CCOCC3)c3ccccc23)cc1` (stereo not shown) [Example 2A, 3-(4-methylbenzoyl)-1-[1-methyl-2-(4-morpholinyl)ethyl]-1H-indole], under setting [2], the inhibition in vivo at 30 mg/kg was found to be 7%, the inhibition in vivo at 300 mg/kg was determined as 60%, the inhibition in vivo at 550 mg/kg turned out to be 73% and the inhibition in vivo at 1000 mg/kg amounted to 67%.
Take `COc1ccc(C(=O)c2c(Cl)n(CCN3CCOCC3)c3ccccc23)cc1` [Example 2AB]: the ED50 (Mus musculus, po) is 91 mg/kg.
In the case of `CCCc1ccc(C(=O)c2c(C)n(CCN3CCOCC3)c3ccccc23)cc1` [Example 2AC], the inhibition in vivo at 100 mg/kg under setting [2] was determined as 30%.
On the same count and under the same terms, under `Cc1ccccc1C(=O)c1c(C)n(CCCN2CCOCC2)c2ccc(F)cc12` [Example 2AD] stands 10%.
`Cc1c(C(=O)c2ccc(F)cc2)c2cc(F)ccc2n1CCCN1CCOCC1` [Example 2AE]: the inhibition in vivo at 100 mg/kg under setting [2] turned out to be 20%.
On the same count and under the same terms, under `Cc1c(C(=O)c2ccoc2)c2cc(F)ccc2n1CCCN1CCOCC1` [Example 2AF] stands 30%.
Turning to `Cc1c(C(=O)C=Cc2ccccc2)c2cc(F)ccc2n1CCCN1CCOCC1` [Example 2AG], the ED50 (Mus musculus, po) stood at 143 mg/kg.
As to `Cc1c(C(=O)c2ccc(F)cc2F)c2cc(F)ccc2n1CCN1CCOCC1` [Example 2AH], the inhibition in vivo at 100 mg/kg under setting [2] was 20%.
Regarding `Cc1c(C(=O)c2cccc3ccccc23)c2ccccc2n1C(C)CN1CCOCC1` (stereo not shown) [Example 2AK], where the note is “Mus musculus, iv, 0.3 mg./kg. i.v., read-out: Ach percent inhibition”, the inhibition in vivo at 0.3 mg/kg was 30%.
As for `O=C(c1cccc2ccccc12)c1cn(CCN2CCOCC2)c2ccccc12` [Example 2AL], under “Mus musculus, iv, 0.1 mg./kg. i.v., read-out: Ach percent inhibition”, the inhibition in vivo at 0.1 mg/kg is 20%.
As to `Cc1c(C(=O)c2ccc3occc3c2)c2ccccc2n1CCN1CCOCC1` [Example 2AM], the inhibition in vivo at 100 mg/kg under setting [2] was 80%.
With `Cc1c(C(=O)c2ccc(F)cc2F)c2ccccc2n1CCN1CCOCC1` [Example 2AN], the ED50 (Mus musculus, po) was determined as 90 mg/kg.
As to `Cc1c(C(=O)c2ccc(F)cc2F)c2cc(F)ccc2n1CCCN1CCOCC1` [Example 2AO], the inhibition in vivo at 100 mg/kg under setting [2] is 40%.
With `COc1ccc(C(=O)c2c(C)n(CCN3CCOCC3)c3ccccc23)c(F)c1` [Example 2AP], for the setting “Mus musculus, po”, the ED50 came to 27 mg/kg.
In the case of `Cc1c(C(=O)c2ccc(Br)cc2)c2cc(F)ccc2n1CCCN1CCOCC1` [Example 2AR], the inhibition in vivo at 100 mg/kg under setting [2] was found to be 50%.
Same read-out and setting: under `Cc1cccc(C(=O)c2c(C)n(CCN3CCOCC3)c3ccccc23)c1C` [Example 2AT] stands 20%; under `Cc1c(C(=O)c2cc(Cl)cc(Cl)c2)c2ccccc2n1CCN1CCOCC1` [Example 2AU], 30%.
The same measure, in the same setting: the same measure for `Cc1cc(C)cc(C(=O)c2c(C)n(CCN3CCOCC3)c3ccccc23)c1` [Example 2AV]: 10%.
In the case of `Cc1cccc(C(=O)c2c(C)n(CCN3CCOCC3)c3ccccc23)c1` [Example 2AW], the inhibition in vivo at 100 mg/kg under setting [2] is 20%.
The same measure, in the same setting: the same measure for `Cc1c(C(=O)c2cccc(Cl)c2)c2ccccc2n1CCN1CCOCC1` [Example 2AX]: 0%.
Regarding `Cc1c(C(=O)c2ccccc2Cl)c2ccccc2n1C(C)CN1CCOCC1` (stereo not shown) [Example 2AZ], the ED50 (Mus musculus, po) was found to be 26 mg/kg.
Consider `Cc1c(C(=O)c2ccccc2F)c2cc(F)ccc2n1CCCN1CCOCC1` [Example 2BB, 5-fluoro-3-(2-fluorobenzoyl)-2-methyl-1-[3-(4-morpholinyl)propyl]-1H-indole], for which the inhibition in vivo at 100 mg/kg under setting [2] came out at 40%.
On the same count and under the same terms, under `Cc1c(C(=O)c2ccoc2)c2ccccc2n1CCN1CCOCC1` [Example 2BC] stands 10%.
On to `Cc1c(C(=O)c2ccccc2F)c2cc(F)ccc2n1C(C)CN1CCOCC1` (stereo not shown) [Example 2BD], for which the ED50 (Mus musculus, po) is 15 mg/kg.
For `Cc1c(C(=O)c2ccc(Br)cc2)c2ccccc2n1CCN1CCOCC1` [Example 2BE], the inhibition in vivo at 100 mg/kg under setting [2] stood at 30%.
Still for that read-out and setting: the same measure for `Cc1c(C(=O)c2ccc3[nH]cnc3c2)c2ccccc2n1CCN1CCOCC1` [Example 2BF]: 30%.
As to `Cc1ccc(C(=O)c2c(C)n(C(C)CN3CCOCC3)c3ccccc23)cc1` (stereo not shown) [Example 2B], under setting [2], the inhibition in vivo at 300 mg/kg was determined as 47% and the inhibition in vivo at 550 mg/kg came out at 33%.
Turning to `CC(CN1CCOCC1)n1cc(C(=O)c2ccc(F)cc2)c2ccccc21` (stereo not shown) [Example 2D], under setting [2], the inhibition in vivo at 100 mg/kg came out at 20%, the inhibition in vivo at 300 mg/kg was 40% and the inhibition in vivo at 1000 mg/kg was 67%.
With `CC(CN1CCOCC1)n1cc(C(=O)c2ccccc2F)c2ccccc21` (stereo not shown) [Example 2E], the ED50 (Mus musculus, po) is 33 mg/kg.
As for `CC(CN1CCOCC1)n1cc(C(=O)c2cccn2C)c2ccccc21` (stereo not shown) [Example 2F], under setting [2], the inhibition in vivo at 30 mg/kg came to 20%, the inhibition in vivo at 100 mg/kg is 40% and the inhibition in vivo at 300 mg/kg was determined as 33%.
With `Cc1c(C(=O)c2ccc(F)cc2)c2ccccc2n1C(C)CN1CCOCC1` (stereo not shown) [Example 2G], the ED50 (Mus musculus, po) is 42 mg/kg.

The record behind these values is patent US4581354A, “3-arylcarbonyl- and 3-cycloalkylcarbonyl-1-aminoalkyl-1H-indoles, compositions and use” (Sterling Drug Inc., priority 1985, dated 1986).
